Results reported in publication PMC11008251, “Distribution of 2,2′,5,5′-Tetrachlorobiphenyl (PCB52) Metabolites in Adolescent Rats after Acute Nose-Only Inhalation Exposure” (Environmental Science & Technology, 2024).
Like-named read-outs stand apart in the source and are kept apart here.

Assays:
[1] = PCB52 and monohydroxylated metabolite tissue levels by GC-MS/MS after 4 h nose-only inhalation; type: in vivo, Sprague–Dawley rats; conditions: for concentration at 4 h: Sprague-Dawley, rat, inhaled, mean
Procedure: PCB52 vapor for the animal exposure was generated using a published protocol.[12] Briefly, 450 g of 3 mm diameter glass beads were added to a solution of 1.5 g of PCB52 in dichloromethane. The glass beads were then coated with PCB52 by evaporating dichloromethane in a water bath at 29 °C using a rotary evaporator (Buchi Rotavapor R-200, New Castle, DE) under reduced pressure. For the animal exposures, high-efficiency particulate air (HEPA)-filtered laboratory air was passed through the PCB52-coated glass beads at a flow rate of 12 L/min to expose animals to PCB52 vapor in a nose-only exposure apparatus (Figure 1A). The flask of PCB52-coated beads and mixing chamber were kept at 25.0 °C using a precision water bath to facilitate the volatilization of PCB52. The PCB52-laden air was passed through a mixing chamber and distributed to the nose-only inhalation apparatus at a flow rate of 4 L/min per tower (n = 3) and a sampling cartridge filled with 10 g of Amberlite XAD-2 polymeric absorbent resin (Sigma-Aldrich, St. Louis, MO) at a flow rate of 2 L/min. The specified flow rates were generated using flow meter-regulated pumps. The XAD-2 cartridge was used to capture PCB52 vapor to characterize the exposure atmosphere. A sham exposure group was exposed in parallel to HEPA-filtered clean air in an identical nose-only exposure system in an adjacent lab with no supplied PCB52.
(§1) The Institutional Animal Care and Use Committee of the University of Iowa approved all of the animal protocols. Animals were housed in a temperature- and humidity-controlled room (21 °C, 55% relative humidity) with a 12 h light/dark cycle in an Association for the Assessment and Accreditation of Laboratory Animal Care (AAALAC) accredited animal facility. Animals were provided with food (sterile Teklad 5% stock diet, Harlan, Madison, WI) and water ad libitum throughout the study. Thirty-six male and female Sprague–Dawley rats (7 weeks of age; Charles River, Wilmington, MA) were allowed to acclimate to the animal facility for 8 days after arrival. Prior to exposure, rats (227 ± 27 and 197 ± 13 g, male and female, respectively) were randomly assigned to the exposure groups (n = 6 per group) using a random number generated (Excel, version 2307). Animals were simultaneously exposed for 4 h to a low or high concentration of PCB52-laden per sex) or filtered lab air (Figure 1A). Exposure duration was limited to 4 h along with scheduled training days (30 min at 55 days of age and 2 h at 56 days of age) to acclimate animals and minimize stress. […] Animal exposure occurred for 4 h at 57 days of age. Rats are considered adolescents at this age.[38] Serum was collected immediately after the animals were removed from the nose-only apparatus by cardiac puncture under isoflurane anesthesia. Rats were perfused with saline, and organs were excised and stored at −80 °C. Body and organ weights, including brain, lungs, and thymus, were not altered by PCB52 inhalation regardless of sex or exposure (Tables S2 and S3).
PCB52 and its hydroxylated metabolites were extracted from tissues, serum, and cecum and intestinal content using a published protocol;[40],[41] see the Supporting Information. Briefly, PCB52 and its metabolites were extracted from homogenates by liquid–liquid extraction and cleaned by solid-phase extraction with acidified silica gel. PCB52 and metabolites were quantified in the multiple reaction monitoring setting (MRM) on an Agilent 7890 A GC system equipped with an Agilent 7000 Triple Quad and Agilent 7693 autosampler (Agilent Technologies, Santa Clara, CA); see the Supporting Information.
PCB52 and metabolite levels, adjusted for tissue wet weight, are reported as the mean ± standard deviation. Differences in PCB52 and metabolite levels from the GC-MS/MS analysis were analyzed with the Tobit regression model because some measurements are below the detection limit. […]

[2] = Body and organ weights after PCB52 nose-only inhalation; type: in vivo, Sprague–Dawley rats; conditions: for Relative Organ Weights, Brain / Relative Organ Weights, Kidneys / Relative Organ Weights, Liver / Relative Organ Weights, Lung / Relative Organ Weights, Ovaries / Relative Organ Weights, Spleen / Relative Organ Weights, Thymus / Relative Organ Weights, Testies: mean (standard deviation); for Adrenal Glands weight / Body Weight Post Exposure / Kidneys weight / Liver weight / Lung weight / Reproductive organ weight / Spleen weight / Thymus weight: n=6
Procedure: as §1

## Clc1ccc(Cl)c(-c2cc(Cl)ccc2Cl)c1 [PCB52, 2,2′,5,5′-tetrachlorobiphenyl]
[1]; female, adipose, female, high dose, read-out: PCB or metabolite detected level, Adipose
  concentration at 4 h: 6 ng/g
[1]; female, adipose, female, low dose, read-out: PCB or metabolite detected level, Adipose
  concentration at 4 h: 6 ng/g
[1]; female, brain, female, high dose, read-out: PCB or metabolite detected level, Brain
  concentration at 4 h: 2 ng/g
[1]; female, brain, female, low dose, read-out: PCB or metabolite detected level, Brain
  concentration at 4 h: 2 ng/g
[1]; female, cecum, female, high dose, read-out: PCB or metabolite detected level, Cecum
  concentration at 4 h: 1 ng/g
[1]; female, cecum, female, low dose, read-out: PCB or metabolite detected level, Cecum
  concentration at 4 h: 1 ng/g
[1]; female, intestinal content, female, high dose, read-out: PCB or metabolite detected level, Intestinal content
  concentration at 4 h: 2 ng/g
[1]; female, intestinal content, female, low dose, read-out: PCB or metabolite detected level, Intestinal content
  concentration at 4 h: 5 ng/g
[1]; female, liver, female, high dose, read-out: PCB or metabolite detected level, Liver
  concentration at 4 h: 7 ng/g
[1]; female, liver, female, low dose, read-out: PCB or metabolite detected level, Liver
  concentration at 4 h: 7 ng/g
[1]; female, lung, female, high dose, read-out: PCB or metabolite detected level, Lung
  concentration at 4 h: 45 ng/g
[1]; female, lung, female, low dose, read-out: PCB or metabolite detected level, Lung
  concentration at 4 h: 41 ng/g
[1]; female, serum, female, high dose, read-out: PCB or metabolite detected level, Serum
  concentration at 4 h: 1 ng/g
[1]; female, serum, female, low dose, read-out: PCB or metabolite detected level, Serum
  concentration at 4 h: 1 ng/g
[1]; irrespective of sex or dose, GC-MS/MS
  general trend of decreasing tissue concentration: lung > liver > adipose > brain ≈ intestinal content ≈ cecum ≈ serum
[1]; male, adipose, male, high dose, read-out: PCB or metabolite detected level, Adipose
  concentration at 4 h: 8 ng/g
[1]; male, adipose, male, low dose, read-out: PCB or metabolite detected level, Adipose
  concentration at 4 h: 6 ng/g
[1]; male, brain, male, high dose, read-out: PCB or metabolite detected level, Brain
  concentration at 4 h: 2 ng/g
[1]; male, brain, male, low dose, read-out: PCB or metabolite detected level, Brain
  concentration at 4 h: 1 ng/g
[1]; male, cecum, male, high dose, read-out: PCB or metabolite detected level, Cecum
  concentration at 4 h: 2 ng/g
[1]; male, cecum, male, low dose, read-out: PCB or metabolite detected level, Cecum
  concentration at 4 h: 1 ng/g
[1]; male, intestinal content, male, high dose, read-out: PCB or metabolite detected level, Intestinal content
  concentration at 4 h: 1 ng/g
[1]; male, intestinal content, male, low dose, read-out: PCB or metabolite detected level, Intestinal content
  concentration at 4 h: 1 ng/g
[1]; male, liver, male, high dose, read-out: PCB or metabolite detected level, Liver
  concentration at 4 h: 10 ng/g
[1]; male, liver, male, low dose, read-out: PCB or metabolite detected level, Liver
  concentration at 4 h: 9 ng/g
[1]; male, lung, male, high dose, read-out: PCB or metabolite detected level, Lung
  concentration at 4 h: 46 ng/g
[1]; male, lung, male, low dose, read-out: PCB or metabolite detected level, Lung
  concentration at 4 h: 50 ng/g
[1]; male, serum, male, high dose, read-out: PCB or metabolite detected level, Serum
  concentration at 4 h: 2 ng/g
[1]; male, serum, male, low dose, read-out: PCB or metabolite detected level, Serum
  concentration at 4 h: 2 ng/g
[2]; Females, High
  Relative Organ Weights, Brain: 0.010 (0.001) g/g BW
  Relative Organ Weights, Kidneys: 0.009 (0.001) g/g BW
  Relative Organ Weights, Liver: 0.042 (0.003) g/g BW
  Relative Organ Weights, Lung: 0.006 (0.001) g/g BW
  Relative Organ Weights, Ovaries: 0.003 (0.001) g/g BW
  Relative Organ Weights, Spleen: 0.002 (0.001) g/g BW
  Relative Organ Weights, Thymus: 0.003 (0.001) g/g BW
[2]; Females, Low
  Relative Organ Weights, Brain: 0.010 (0.001) g/g BW
  Relative Organ Weights, Kidneys: 0.009 (0.001) g/g BW
  Relative Organ Weights, Liver: 0.044 (0.002) g/g BW
  Relative Organ Weights, Lung: 0.007 (0.001) g/g BW
  Relative Organ Weights, Ovaries: 0.003 (0.001) g/g BW
  Relative Organ Weights, Spleen: 0.003 (0.001) g/g BW
  Relative Organ Weights, Thymus: 0.003 (0.001) g/g BW
[2]; High exposure group, female
  Adrenal Glands weight: 0.06 grams
  Body Weight Post Exposure: 196.92 ± 9.39 grams
  Kidneys weight: 1.85 grams
  Liver weight: 8.29 grams
  Lung weight: 1.23 grams
  Reproductive organ weight: 0.59 ± 0.16 grams
  Spleen weight: 0.44 grams
  Thymus weight: 0.58 ± 0.06 grams
[2]; High exposure group, male
  Adrenal Glands weight: 0.03 grams
  Body Weight Post Exposure: 192.17 ± 22.01 grams
  Kidneys weight: 1.73 grams
  Liver weight: 9.28 grams
  Lung weight: 1.52 grams
  Reproductive organ weight: 1.82 ± 0.52 grams
  Spleen weight: 0.53 grams
  Thymus weight: 0.56 ± 0.05 grams
[2]; Low exposure group, female
  Adrenal Glands weight: 0.04 grams
  Body Weight Post Exposure: 183.46 ± 14.31 grams
  Kidneys weight: 1.70 grams
  Liver weight: 8.11 grams
  Lung weight: 1.24 grams
  Reproductive organ weight: 0.55 ± 0.10 grams
  Spleen weight: 0.47 grams
  Thymus weight: 0.61 ± 0.12 grams
[2]; Low exposure group, male
  Adrenal Glands weight: 0.04 grams
  Body Weight Post Exposure: 228.20 ± 14.09 grams
  Kidneys weight: 1.99 grams
  Liver weight: 10.31 grams
  Lung weight: 1.48 grams
  Reproductive organ weight: 2.51 ± 0.14 grams
  Spleen weight: 0.59 grams
  Thymus weight: 0.70 ± 0.15 grams
[2]; Males, High
  Relative Organ Weights, Brain: 0.010 (0.001) g/g BW
  Relative Organ Weights, Kidneys: 0.009 (0.001) g/g BW
  Relative Organ Weights, Liver: 0.048 (0.003) g/g BW
  Relative Organ Weights, Lung: 0.008 (0.002) g/g BW
  Relative Organ Weights, Spleen: 0.003 (0.001) g/g BW
  Relative Organ Weights, Testies: 0.009 (0.002) g/g BW
  Relative Organ Weights, Thymus: 0.003 (0.001) g/g BW
[2]; Males, Low
  Relative Organ Weights, Brain: 0.008 (0.001) g/g BW
  Relative Organ Weights, Kidneys: 0.009 (0.001) g/g BW
  Relative Organ Weights, Liver: 0.045 (0.002) g/g BW
  Relative Organ Weights, Lung: 0.007 (0.002) g/g BW
  Relative Organ Weights, Spleen: 0.003 (0.001) g/g BW
  Relative Organ Weights, Testies: 0.011 (0.001) g/g BW
  Relative Organ Weights, Thymus: 0.003 (0.001) g/g BW
[2]; regardless of sex or exposure
  Body and organ weights, including brain, lungs, and thymus: not altered
